Source: publication PMC8607231, “Generation of KS-133 as a Novel Bicyclic Peptide with a Potent and Selective VIPR2 Antagonist Activity that Counteracts Cognitive Decline in a Mouse Model of Psychiatric Disorders” (Frontiers in Pharmacology, 2021)
Where a SMILES comes first, the peptide text is derived from it. Bridges are numbered along the chain shown (N, C = ends).

How the values were obtained:
human VIPR2 [1] = molecular target: T1, human VIPR2 (Homo sapiens, UniProt P41587); assay: HitHunter cAMP assay, antagonist mode; format: cell-based
T1 construct: host or cells: CHO-K1
T1 sequence (P41587 24-438): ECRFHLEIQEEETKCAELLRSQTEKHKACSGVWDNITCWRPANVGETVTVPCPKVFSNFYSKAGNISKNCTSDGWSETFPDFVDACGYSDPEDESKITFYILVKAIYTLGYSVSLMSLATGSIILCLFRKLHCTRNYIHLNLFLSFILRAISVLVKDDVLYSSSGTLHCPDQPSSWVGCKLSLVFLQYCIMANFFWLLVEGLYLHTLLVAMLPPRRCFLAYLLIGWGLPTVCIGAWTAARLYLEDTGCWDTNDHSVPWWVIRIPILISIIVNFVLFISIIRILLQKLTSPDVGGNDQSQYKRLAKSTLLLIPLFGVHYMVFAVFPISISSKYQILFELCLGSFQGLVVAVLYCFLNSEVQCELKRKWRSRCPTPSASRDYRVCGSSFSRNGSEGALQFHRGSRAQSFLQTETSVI
Protocol: (§1) Evaluation of antagonist activities of peptides against VIP-VIPR1, VIP-VIPR2, and PACAP-PAC1 signaling pathways and agonistic activity of KS-133 at VIPR2 was carried out by Eurofins DiscoverX (Fremont, CA, United States). Intracellular calcium mobilization was monitored using a calcium-sensitive dye loaded in CHO-K1 cells expressing human VIPR1 (ITEM 86-0030P-2243AN), VIPR2 (ITEM 86-0030P-2244AN), and PAC1 (ITEM 86-0030P-2066AN). The cells were preincubated with antagonistic peptides for 30 min at room temperature in the dark. After addition of the ligand at EC80, calcium mobilization was immediately monitored by FLIPR Tetra for 2 min. Cyclic AMP production in CHO-K1 cells expressing human VIPR2 was evaluated using HitHunter® cAMP assays (antagonist mode: ITEM 86-0007P-2362AN; agonist mode: ITEM 86-0007P-2362AG). […] Cells were lysed and the cAMP content of the cell lysate was determined by the β-galactosidase-based enzyme fragment complementation assay ([Eglen, 2002]). […]
(§2) FIGURE 3 Antagonistic/agonistic activities of peptides in the calcium influx and cAMP assays. […] In the calcium influx assay, after addition of ligand at EC80, calcium mobilization was monitored immediately (see details in the Methods section) (n = 4 wells for each treatment). […]
(§3) Next, antagonistic and agonistic activities of KS-133 at VIPR2 were evaluated by a cAMP assay. […]

human VIPR2 [2] = molecular target: T1, human VIPR2; assay: HitHunter cAMP assay, agonist mode; format: cell-based
Protocol: as §1, §2, §3

IC50 (human VIPR2 [1]; ligand VIP (0.5 nM) at EC80, CHO-K1 cells, n = 4 wells, ± S.E.M): 500 ± 79 nM
cAMP assay (nM) Agonistic activity VIPR2 (human VIPR2 [2]; agonist mode, CHO-K1 cells): >5,000 nM
VIPR2 agonist activity (human VIPR2 [2]; cAMP assay, at high concentration of 5 μM): did not exhibit VIPR2 agonist activity
SMILES: CC[C@H](C)[C@H](NC(=O)[C@H](CC(C)C)NC(=O)[C@@H]1CC(=O)NCCCC[C@@H]2NC(=O)[C@@H]3CCCN3C(=O)[C@H](CC(C)C)NC(=O)[C@H](Cc3ccc(O)cc3)NC(=O)[C@@H]3CCCN3C(=O)[C@@H]3CCCN3C(=O)[C@@H](NC(C)=O)CSSC[C@H](NC(=O)[C@H](CC(C)C)NC(=O)[C@H](Cc3ccc(O)cc3)NC2=O)C(=O)N1)C(N)=O [KS-133, Ac-c[Cys-Pro-Pro-Tyr-Leu-Pro-c(Lys-Tyr-Leu-Cys]-Asp)-Leu-Ile-NH2] (Ac-CPPYLPKYLCDLI-NH2; disulfide 1-10; lactam 7-11)
Antagonism of VIP-VIPR2 signaling pathway (human VIPR2 [1]; cAMP assay): antagonized VIP-VIPR2 signaling pathway in a peptide concentration-dependent manner
